According to patent EP0411567A1, “5-(omega-Aminoacyl)-5,10-dihydro-11H-dibenzo[b,e][1,4]-diazepin-11-ones, processes for their preparation, and their use as medicaments” (ARZNEIMITTELWERK DRESDEN GmbH, priority 1989, dated 1991):
Where a name gives a salt, the structure may show the parent alone. Read-outs that look alike come from different tables or passages of the source.

Tests used:
[1] = system: Wistarratten; assay: Orienting determination of acute toxicity in rats, i.v.; type: in vivo, Ratte; conditions: therapeutic breadth; rat LD₅₀ i.v. / rat CaCl₂-arrhythmia ED₅₀
From the text: Die Verbindungen der allgemeinen Formeln I, VII bzw.
(§1) ED₅₀ i.v. = Dosis in mg/kg, welche die fibrillatorische Wirkung von CaCl₂ an Ratten nach I.v.-Applikation der Testsubstanz um 50 % unterdrückt. Berechnung nach der Probit-Regressionsanalyse mit Vertrauensbereich, p = 0,05 (Werte in Klammern) LD₅₀ i.v. = Letale Dosis in mg/kg bei 50 % der Versuchstiere einer orientierenden Bestimmung der akuten Toxizität an Wistarratten hauseigener Zucht, I.v.-Applikation in die Schwanzvene, 3 - 4 Dosierungen zu je 10 Tieren.
(§2) Berechnung nach der Probit-Regressionsanalyse mit Vertrauensbereich, p = 0,05 (Werte in Klammern) [formula] zur Ermittlung der therapeutischen Breite eff. Dosis = effektive Dosis in mg/kg Wirkungsdauer = Wirkungsdauer in Minuten an Hunden, 24 h nach zweistufiger Koronarligatur

[2] = system: Hunden, 24 Stunden nach zweistufiger Koronarligatur (Harris-Modell); assay: Two-stage coronary ligation in the dog (Harris model); type: in vivo, Hund; conditions: for Ektopische Kontraktionen in Prozent/min / Gesamtzahl der Herzkontraktionen/min: mean x; for Harris Hund Wirkungsdauer / Harris Hund eff. Dosis i.v.: dogs, 24 h after two-stage coronary ligation; for Harris Hund Wirkungsdauer: at the effective i.v. dose
Procedure: Am Modell der zweistufigen Koronarligatur am Hund nach Harris (Methodik bei Kaverina und Mitarbeiter, Pharmazie 40, S. 845 (1985)) zeigen die Verbindungen der allgemeinen Formeln I, VII bzw. X eine starke und langanhaltende Wirkung (siehe Tabellen 2 und 3).
Bereits in der 5. Minute nach der intravenösen Injektion der Verbindungen der allgemeinen Formeln I, VII bzw. X in einer Konzentration von 0,005 mmol/kg (ca. 2,0 mg/kg) wird die ektopischeArrhythmie um das 2- bis 3-fache des Basiswertes unterdrückt, während die Gesamtzahl der Herzkontraktionen konstant bleibt. Die Wirkung auf die ektopische Arrhythmie hält 30 bis 60 Minuten lang an. Tabelle 1
as §2
x = Mittelwert s = Standardabweichung ±

[3] = system: CaCl₂-Arrhythmie der Ratte; assay: CaCl₂-induced arrhythmia in the rat (antifibrillatory effect); type: in vivo; conditions: iv; for ED50: Rattus norvegicus, read-out: CaCl₂-Arrhythmie Ratte, ED₅₀
From the text: as §1

[4] = system: Hunden, 24 Stunden nach zweistufiger Koronarligatur (Harris-Modell); conditions: Harris model, cited from earlier work
[5] = 30 min after 0,005 mmol/kg i.v.
[6] = 60 min after 0,005 mmol/kg i.v.
[7] = 120 min after 0,005 mmol/kg i.v.
[8] = 180 min after 0,005 mmol/kg i.v.
[9] = Basis (before injection), 0,005 mmol/kg group
[10] = dose suppressing the fibrillatory effect of CaCl₂ by 50 %, probit regression, confidence range p = 0,05 in brackets
[11] = 300 min after 0,005 mmol/kg i.v.
[12] = 360 min after 0,005 mmol/kg i.v.
[13] = 5 min after 0,02 mmol/kg (5,4 mg/kg)
[14] = 30 min after 0,02 mmol/kg (5,4 mg/kg)
[15] = Basis (before injection), 0,02 mmol/kg (5,4 mg/kg) group

CN(C)CCCCCC(=O)N1c2ccccc2NC(=O)c2ccccc21 [Beispiel 1, 5-(6-Dimethylaminocapronyl)-5,10-dihydro-11H-dibenzo [b,e]-[1,4] diazepin-11-on·HCl]
Q LD₅₀/ED₅₀ [1]: 207 | Ektopische Kontraktionen in Prozent/min ([2]; 5 min after 0,005 mmol/kg i.v.): 30 Prozent | Gesamtzahl der Herzkontraktionen/min ([2]; 5 min after 0,005 mmol/kg i.v.): 192 min⁻¹ | Ektopische Kontraktionen in Prozent/min [2, 5]: 47 Prozent | Gesamtzahl der Herzkontraktionen/min [2, 5]: 193 min⁻¹ | Ektopische Kontraktionen in Prozent/min [2, 6]: 54 Prozent | Gesamtzahl der Herzkontraktionen/min [2, 6]: 177 min⁻¹ | Ektopische Kontraktionen in Prozent/min [2, 7]: 68 Prozent | Gesamtzahl der Herzkontraktionen/min [2, 7]: 175 min⁻¹ | Ektopische Kontraktionen in Prozent/min [2, 8]: 80 Prozent | Gesamtzahl der Herzkontraktionen/min [2, 8]: 169 min⁻¹ | Ektopische Kontraktionen in Prozent/min [2, 9]: 99 Prozent | Gesamtzahl der Herzkontraktionen/min [2, 9]: 164 min⁻¹ | Harris Hund Wirkungsdauer [2]: 60 min | Harris Hund eff. Dosis i.v. [2]: 1,76 mg/kg | ED50 [3, 10]: 0.41 mg/kg

CCN(CC)CCCCCC(=O)N1c2ccc(Cl)cc2NC(=O)c2ccccc21 [Beispiel 6, 8-Chlor-5-(6-diethylaminocapronyl)-5,10-dihydro-11H-dibenzo[be] [1,4]diazepin-11-on]
Q LD₅₀/ED₅₀ [1]: 86 | Ektopische Kontraktionen in Prozent/min ([2]; 5 min after 0,005 mmol/kg i.v.): 20 Prozent | Gesamtzahl der Herzkontraktionen/min ([2]; 5 min after 0,005 mmol/kg i.v.): 170 min⁻¹ | Ektopische Kontraktionen in Prozent/min [2, 5]: 4 Prozent | Gesamtzahl der Herzkontraktionen/min [2, 5]: 159 min⁻¹ | Ektopische Kontraktionen in Prozent/min [2, 6]: 37 Prozent | Gesamtzahl der Herzkontraktionen/min [2, 6]: 162 min⁻¹ | Ektopische Kontraktionen in Prozent/min [2, 7]: 76 Prozent | Gesamtzahl der Herzkontraktionen/min [2, 7]: 162 min⁻¹ | Ektopische Kontraktionen in Prozent/min [2, 9]: 78 Prozent | Gesamtzahl der Herzkontraktionen/min [2, 9]: 167 min⁻¹ | Harris Hund Wirkungsdauer [2]: 60 min | Harris Hund eff. Dosis i.v. [2]: 2,07 mg/kg | ED50 [3, 10]: 0.44 mg/kg

C=CC1CN2CCC1CC2C(O)c1ccnc2ccc(OC)cc12 (centres unmarked) [Chinidin]
CaCl₂-Arrhythmie Ratte, ED₅₀ ([3]; in vivo): 2,7 (2,0 - 3,7) mg/kg | Harris Hund Wirkungsdauer ([4]; dogs, listed as whose dose is marked [1] (literature)): 15 min | Harris Hund eff. Dosis i.v. ([4]; dogs, value marked [1] (Mokler and van Arman 1962)): 10,0 [1] mg/kg | Gesamtzahl der Herzkontraktionen ([4]; in words, literature [1]): Abnahme | ektopische Arrhythmie ([4]; in words, literature [1]): Abnahme

O=C1Nc2cc(Cl)ccc2N(C(=O)CCCCCCN2CCOCC2)c2ccccc21 [Beispiel 9, 8-Chlor-5-(7-N-morpholinoönanthoyl)-5,10-dihydro-11H-dibenzo [b,e] [1,4]diazepin-11-on]
Q LD₅₀/ED₅₀ [1]: 256 | Ektopische Kontraktionen in Prozent/min ([2]; 5 min after 0,005 mmol/kg i.v.): 21 Prozent | Gesamtzahl der Herzkontraktionen/min ([2]; 5 min after 0,005 mmol/kg i.v.): 179 min⁻¹ | Ektopische Kontraktionen in Prozent/min [2, 5]: 38 Prozent | Gesamtzahl der Herzkontraktionen/min [2, 5]: 164 min⁻¹ | Ektopische Kontraktionen in Prozent/min [2, 6]: 42 Prozent | Gesamtzahl der Herzkontraktionen/min [2, 6]: 168 min⁻¹ | Ektopische Kontraktionen in Prozent/min [2, 7]: 42 Prozent | Gesamtzahl der Herzkontraktionen/min [2, 7]: 156 min⁻¹ | Ektopische Kontraktionen in Prozent/min [2, 8]: 73 Prozent | Gesamtzahl der Herzkontraktionen/min [2, 8]: 159 min⁻¹ | Ektopische Kontraktionen in Prozent/min [2, 11]: 79 Prozent | Gesamtzahl der Herzkontraktionen/min [2, 11]: 163 min⁻¹ | Ektopische Kontraktionen in Prozent/min [2, 12]: 89 Prozent | Gesamtzahl der Herzkontraktionen/min [2, 12]: 180 min⁻¹ | Ektopische Kontraktionen in Prozent/min [2, 9]: 90 Prozent | Gesamtzahl der Herzkontraktionen/min [2, 9]: 156 min⁻¹ | Harris Hund Wirkungsdauer [2]: 120 min | Harris Hund eff. Dosis i.v. [2]: 2,21 mg/kg | ED50 [3, 10]: 0.16 mg/kg

CCN(CC)CCCC(=O)N1c2ccccc2NC(=O)c2ccccc21 [Beispiel 2, 5-(4-Diethylaminobutyryl)-5,10-dihydro-11H-dibenzo[b,e]-[1,4]diazepin-11-on]
Ektopische Kontraktionen in Prozent/min ([2]; 5 min after 0,005 mmol/kg i.v.): 26 Prozent | Ektopische Kontraktionen in Prozent/min [2, 5]: 24 Prozent | Ektopische Kontraktionen in Prozent/min [2, 6]: 75 Prozent | Ektopische Kontraktionen in Prozent/min [2, 7]: 90 Prozent | Ektopische Kontraktionen in Prozent/min [2, 9]: 88 Prozent

CCN(CC)CC(=O)Nc1c(C)cccc1C [Lidocain, reference compound]
Ektopische Kontraktionen in Prozent/min [2, 13]: 34 Prozent | Gesamtzahl der Herzkontraktionen/min [2, 13]: 139 min⁻¹ | Ektopische Kontraktionen in Prozent/min [2, 14]: 78 Prozent | Gesamtzahl der Herzkontraktionen/min [2, 14]: 138 min⁻¹ | Ektopische Kontraktionen in Prozent/min [2, 15]: 83 Prozent | Gesamtzahl der Herzkontraktionen/min [2, 15]: 146 min⁻¹ | Harris Hund Wirkungsdauer [2]: 15 min | Harris Hund eff. Dosis i.v. [2]: 8,0 mg/kg | Gesamtzahl der Herzkontraktionen ([2]; in words, Harris model): Abnahme | ektopische Arrhythmie ([2]; in words, Harris model): Abnahme | ED50 [3]: 3.1 mg/kg

CCN(CC)CCCC(=O)N1c2ccc(Cl)cc2NC(=O)c2ccccc21 [Beispiel 4, 8-Chlor-5-(4-diethylaminobutyryl)-5,10-dihydro-11H-dibenzo[b,e] [1,4]diazepin-11-on]
Q LD₅₀/ED₅₀ [1]: 1614 | Gesamtzahl der Herzkontraktionen/min ([2]; 5 min after 0,005 mmol/kg i.v.): 175 min⁻¹ | Gesamtzahl der Herzkontraktionen/min [2, 5]: 180 min⁻¹ | Gesamtzahl der Herzkontraktionen/min [2, 6]: 181 min⁻¹ | Gesamtzahl der Herzkontraktionen/min [2, 7]: 183 min⁻¹ | Gesamtzahl der Herzkontraktionen/min [2, 9]: 183 min⁻¹ | Harris Hund Wirkungsdauer [2]: 30 min | Harris Hund eff. Dosis i.v. [2]: 1,93 mg/kg | ED50 [3, 10]: 0.044 mg/kg
